This passage reports CC50 and IC50 results from ChEMBL document CHEMBL1147452, “A new approach to the synthesis of optically active alkylated adenine derivatives” (Bioorg Med Chem Lett, 2004).

A short description of test [1]: Cytotoxic concentration at which cell viability was reduced by 50%. In kind it is functional.
Another test deals with Cowpox virus. Kind of test: Inhibitory concentration required against Cowpox virus in Vero cell culture. In kind it is functional, organism-based.
The next test concerns Monkeypox virus. The test is described as follows: Inhibitory concentration required against Monkeypox virus in Vero cell culture. In kind it is functional, organism-based.
In a further test the test system is Vaccinia virus. The test is described as follows: Inhibitory concentration required against vaccinia virus in Vero cell culture. It is filed as functional, organism-based. The note with it: Orthopoxvirus vaccinia.
In another test the test system is Variola virus. Kind of test: Inhibitory concentration required against replication of small pox virus (strain India 3a) in Vero cells. In kind it is functional, organism-based.

One may read the CC50 as the concentration at which the toxic effect on the cells reaches its halfway point. Low values mean greater toxicity to the cells, high ones lower toxicity to the cells. A word on the IC50: it is the concentration at which inhibition is half-maximal. The molecule `Nc1ncnc2c1ncn2C[C@H]1COP(=O)(O)CO1` displayed a CC50 in test [1] above 350 µM. Besides, the values for the IC50 in the test on Cowpox virus, in the test with Monkeypox virus and in the test on Vaccinia virus were 61 µM, 48 µM and 41 µM, respectively.

For the molecule `Nc1ncnc2c1ncn2C[C@H](O)C(=O)O`, in the test on Variola virus, it took 91 µM to reach half-maximal inhibition (IC50). That is a double-digit micromolar value.

In test [1], `Nc1ncnc2c1ncn2C[C@@H]1COP(=O)(O)CO1` had a CC50 above 350 µM. Besides, the IC50 with Cowpox virus, in the test with Monkeypox virus and in the test on Vaccinia virus was above 350 µM in each case.

For the molecule `Nc1ncnc2c1ncn2C[C@@H](O)CO`, in test [1], the CC50 is above 500 µM. Also, the IC50 in the test on Cowpox virus, in the test on Monkeypox virus and with Vaccinia virus was above 500 µM each time.

`COC(CO)O[C@@H](CO)Cn1cnc2c(N)ncnc21` (some centres undefined): in the test on Variola virus, the IC50 is 62 µM.

Take `Nc1ncnc2c1ncn2C[C@H](O)CO` [(S)-DHPA]: the CC50 in test [1] was above 500 µM. Further, the IC50 was found to be 49 µM with Cowpox virus, 41 µM in the test with Variola virus, 54 µM in the test with Monkeypox virus and 34 µM in the test on Vaccinia virus.
